From PubChem BioAssay (NCI)
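A five-concentration, 48-hour dose response in 96-well plates underlies each endpoint, interpolated linearly between surrounding concentrations. GI50: concentration for 50% inhibition of growth. At the TGI there is no net growth.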

How the values were obtained:
Assay in all cases: NCI tumour cell line growth inhibition, 48 h
786-0 renal = tested on: 786-0 renal
A549 NSCLC = tested on: A549 NSCLC
ACHN renal = tested on: ACHN renal
BT-549 breast = tested on: BT-549 breast
CAKI-1 renal = tested on: CAKI-1 renal
CCRF-CEM leukemia = tested on: CCRF-CEM leukemia
COLO 205 colon = tested on: COLO 205 colon
EKVX NSCLC = tested on: EKVX NSCLC
HCC-2998 colon = tested on: HCC-2998 colon
HCT-116 colon = tested on: HCT-116 colon
HL-60(TB) leukemia = tested on: HL-60(TB) leukemia
HOP-62 NSCLC = tested on: HOP-62 NSCLC
HOP-92 NSCLC = tested on: HOP-92 NSCLC
HT29 colon = tested on: HT29 colon
IGROV1 ovarian = tested on: IGROV1 ovarian
KM12 colon = tested on: KM12 colon
LOX IMVI melanoma = tested on: LOX IMVI melanoma
M14 melanoma = tested on: M14 melanoma
MALME-3M melanoma = tested on: MALME-3M melanoma
MDA-MB-231 breast = tested on: MDA-MB-231 breast
MDA-MB-435 = tested on: MDA-MB-435
MOLT-4 leukemia = tested on: MOLT-4 leukemia
NCI-H226 lung = tested on: NCI-H226 lung
NCI-H23 lung = tested on: NCI-H23 lung
NCI-H522 lung = tested on: NCI-H522 lung
NCI/ADR-RES ovarian = tested on: NCI/ADR-RES ovarian
OVCAR-3 ovarian = tested on: OVCAR-3 ovarian
OVCAR-4 ovarian = tested on: OVCAR-4 ovarian
OVCAR-8 ovarian = tested on: OVCAR-8 ovarian
PC-3 prostate = tested on: PC-3 prostate
RXF 393 renal = tested on: RXF 393 renal
SF-268 CNS = tested on: SF-268 CNS
SF-295 CNS = tested on: SF-295 CNS
SF-539 CNS = tested on: SF-539 CNS
SK-MEL-2 melanoma = tested on: SK-MEL-2 melanoma
SK-MEL-28 melanoma = tested on: SK-MEL-28 melanoma
SK-MEL-5 melanoma = tested on: SK-MEL-5 melanoma
SK-OV-3 ovarian = tested on: SK-OV-3 ovarian
SN12C renal = tested on: SN12C renal
SNB-19 CNS = tested on: SNB-19 CNS
SNB-75 CNS = tested on: SNB-75 CNS
SW-620 colon = tested on: SW-620 colon
T-47D breast = tested on: T-47D breast
TK-10 renal = tested on: TK-10 renal
U251 CNS = tested on: U251 CNS
UACC-257 melanoma = tested on: UACC-257 melanoma
UACC-62 melanoma = tested on: UACC-62 melanoma
UO-31 renal = tested on: UO-31 renal
A498 renal = tested on: A498 renal
DU-145 prostate = tested on: DU-145 prostate
HCT-15 colon = tested on: HCT-15 colon
K-562 leukemia = tested on: K-562 leukemia

Q: `O=[N+]([O-])c1cccc2nc3ccccc3c(NCCCNc3c4ccccc4nc4cccc([N+](=O)[O-])c34)c12` was tested. Which TGI (786-0 renal) did it give?
A: < 10 nM

Q: What about the TGI (A549 NSCLC) of the same compound?
A: 166 nM

Q: And the TGI (ACHN renal)?
A: 13.5 nM

Q: What about the TGI (BT-549 breast) of the same compound?
A: 441 nM

Q: And the TGI (CAKI-1 renal)?
A: 118 nM

Q: And the TGI (CCRF-CEM leukemia)?
A: 162 nM

Q: What about the TGI (COLO 205 colon) of the same compound?
A: < 10 nM

Q: What about the TGI (EKVX NSCLC) of the same compound?
A: 97.5 nM

Q: What about the TGI (HCC-2998 colon) of the same compound?
A: 22.3 nM

Q: What about the TGI (HCT-116 colon) of the same compound?
A: < 10 nM

Q: What about the TGI (HL-60(TB) leukemia) of the same compound?
A: 328 nM

Q: What about the TGI (HOP-62 NSCLC) of the same compound?
A: 84.4 nM

Q: What about the TGI (HOP-92 NSCLC) of the same compound?
A: < 10 nM

Q: And the TGI (HT29 colon)?
A: < 10 nM

Q: What about the TGI (IGROV1 ovarian) of the same compound?
A: 967 nM

Q: What about the TGI (KM12 colon) of the same compound?
A: 73 nM

Q: And the TGI (LOX IMVI melanoma)?
A: > 100000 nM

Q: And the TGI (M14 melanoma)?
A: 74.4 nM

Q: What about the TGI (MALME-3M melanoma) of the same compound?
A: 329 nM

Q: What about the TGI (MDA-MB-231 breast) of the same compound?
A: 31.1 nM

Q: And the TGI (MDA-MB-435)?
A: 141 nM

Q: What about the TGI (MOLT-4 leukemia) of the same compound?
A: 97.2 nM

Q: What about the TGI (NCI-H226 lung) of the same compound?
A: 11700 nM

Q: What about the TGI (NCI-H23 lung) of the same compound?
A: 248 nM

Q: What about the TGI (NCI-H522 lung) of the same compound?
A: 121 nM

Q: What about the TGI (NCI/ADR-RES ovarian) of the same compound?
A: 1190 nM

Q: What about the TGI (OVCAR-3 ovarian) of the same compound?
A: 90.6 nM

Q: What about the TGI (OVCAR-4 ovarian) of the same compound?
A: 302 nM

Q: What about the TGI (OVCAR-8 ovarian) of the same compound?
A: 131 nM

Q: And the TGI (PC-3 prostate)?
A: 143 nM

Q: What about the TGI (RXF 393 renal) of the same compound?
A: < 10 nM

Q: And the TGI (SF-268 CNS)?
A: 38.7 nM

Q: What about the TGI (SF-295 CNS) of the same compound?
A: 1500 nM

Q: What about the TGI (SF-539 CNS) of the same compound?
A: 149 nM

Q: And the TGI (SK-MEL-2 melanoma)?
A: 130 nM

Q: And the TGI (SK-MEL-28 melanoma)?
A: 181 nM

Q: And the TGI (SK-MEL-5 melanoma)?
A: 22.1 nM

Q: What about the TGI (SK-OV-3 ovarian) of the same compound?
A: 1590 nM

Q: What about the TGI (SN12C renal) of the same compound?
A: 97.6 nM

Q: And the TGI (SNB-19 CNS)?
A: 163 nM

Q: And the TGI (SNB-75 CNS)?
A: 277 nM

Q: What about the TGI (SW-620 colon) of the same compound?
A: > 100000 nM

Q: And the TGI (T-47D breast)?
A: 407 nM

Q: What about the TGI (TK-10 renal) of the same compound?
A: < 10 nM

Q: And the TGI (U251 CNS)?
A: 181 nM

Q: What about the TGI (UACC-257 melanoma) of the same compound?
A: 329 nM

Q: And the TGI (UACC-62 melanoma)?
A: 245 nM

Q: And the TGI (UO-31 renal)?
A: 143 nM

Q: Which GI50 (A498 renal) does the source give for `C/C(=N/N=C(\[O-])c1ccncc1)C(F)(F)F.C/C(=N\N=C(/[O-])c1ccncc1)C(F)(F)F.[Ni+2]` here?
A: > 1000 nM

Q: And the TGI (A498 renal)?
A: > 1000 nM

Q: And the GI50 (BT-549 breast)?
A: > 1000 nM

Q: What about the TGI (BT-549 breast) of the same compound?
A: > 1000 nM

Q: What about the GI50 (CCRF-CEM leukemia) of the same compound?
A: > 1000 nM

Q: What about the TGI (CCRF-CEM leukemia) of the same compound?
A: > 1000 nM

Q: And the GI50 (COLO 205 colon)?
A: > 1000 nM

Q: What about the TGI (COLO 205 colon) of the same compound?
A: > 1000 nM

Q: What about the GI50 (DU-145 prostate) of the same compound?
A: > 1000 nM

Q: What about the TGI (DU-145 prostate) of the same compound?
A: > 1000 nM

Q: And the GI50 (EKVX NSCLC)?
A: > 1000 nM

Q: What about the TGI (EKVX NSCLC) of the same compound?
A: > 1000 nM

Q: What about the GI50 (HCC-2998 colon) of the same compound?
A: > 1000 nM

Q: What about the TGI (HCC-2998 colon) of the same compound?
A: > 1000 nM

Q: And the GI50 (HCT-15 colon)?
A: > 1000 nM

Q: What about the TGI (HCT-15 colon) of the same compound?
A: > 1000 nM

Q: What about the TGI (HL-60(TB) leukemia) of the same compound?
A: > 1000 nM

Q: What about the GI50 (HOP-62 NSCLC) of the same compound?
A: > 1000 nM

Q: And the TGI (HOP-62 NSCLC)?
A: > 1000 nM

Q: And the GI50 (HT29 colon)?
A: > 1000 nM

Q: And the TGI (HT29 colon)?
A: > 1000 nM

Q: What about the GI50 (K-562 leukemia) of the same compound?
A: > 1000 nM

Q: What about the TGI (K-562 leukemia) of the same compound?
A: > 1000 nM

Q: What about the GI50 (KM12 colon) of the same compound?
A: > 1000 nM

Q: What about the TGI (KM12 colon) of the same compound?
A: > 1000 nM

Q: And the GI50 (LOX IMVI melanoma)?
A: > 1000 nM

Q: And the TGI (LOX IMVI melanoma)?
A: > 1000 nM

Q: And the GI50 (MALME-3M melanoma)?
A: > 1000 nM

Q: What about the TGI (MALME-3M melanoma) of the same compound?
A: > 1000 nM

Q: And the GI50 (MOLT-4 leukemia)?
A: > 1000 nM

Q: And the TGI (MOLT-4 leukemia)?
A: > 1000 nM

Q: What about the GI50 (NCI-H226 lung) of the same compound?
A: > 1000 nM

Q: And the TGI (NCI-H226 lung)?
A: > 1000 nM

Q: What about the GI50 (NCI-H23 lung) of the same compound?
A: > 1000 nM

Q: What about the TGI (NCI-H23 lung) of the same compound?
A: > 1000 nM

Q: And the GI50 (NCI/ADR-RES ovarian)?
A: > 1000 nM

Q: What about the TGI (NCI/ADR-RES ovarian) of the same compound?
A: > 1000 nM

Q: And the GI50 (SF-268 CNS)?
A: > 1000 nM

Q: And the TGI (SF-268 CNS)?
A: > 1000 nM

Q: What about the GI50 (SF-295 CNS) of the same compound?
A: > 1000 nM

Q: And the TGI (SF-295 CNS)?
A: > 1000 nM

Q: And the GI50 (SK-MEL-2 melanoma)?
A: > 1000 nM

Q: What about the GI50 (SK-MEL-28 melanoma) of the same compound?
A: 1.08 nM

Q: And the TGI (SK-MEL-28 melanoma)?
A: 5 nM

Q: And the GI50 (SK-OV-3 ovarian)?
A: 1.56 nM

Q: And the TGI (SK-OV-3 ovarian)?
A: 5 nM

Q: What about the GI50 (SNB-19 CNS) of the same compound?
A: > 1000 nM

Q: What about the TGI (SNB-19 CNS) of the same compound?
A: > 1000 nM

Q: And the GI50 (SNB-75 CNS)?
A: > 1000 nM

Q: What about the TGI (SNB-75 CNS) of the same compound?
A: > 1000 nM

Q: What about the GI50 (SW-620 colon) of the same compound?
A: > 1000 nM

Q: What about the TGI (SW-620 colon) of the same compound?
A: > 1000 nM

Q: What about the GI50 (T-47D breast) of the same compound?
A: > 1000 nM

Q: And the TGI (T-47D breast)?
A: > 1000 nM

Q: And the GI50 (U251 CNS)?
A: > 1000 nM

Q: What about the GI50 (UACC-257 melanoma) of the same compound?
A: > 1000 nM

Q: And the TGI (UACC-257 melanoma)?
A: > 1000 nM
